According to ChEMBL document CHEMBL1782016, “Improvement in aqueous solubility in small molecule drug discovery programs by disruption of molecular planarity and symmetry” (J Med Chem, 2011):
Converted amounts (≈) assume the structure as drawn. The source made the active and inactive calls. The calls are words filed in the database; no cut-off is given here.

Columns and labels:
[1] = Oral bioavailability in rat; conditions: in vivo
Integrin alpha-V/beta-3 [2] = target: T1, Integrin alpha-V/beta-3 (Homo sapiens, UniProt P05106+P06756); assay: Antagonist activity at alphavbeta3 integrin receptor; assay type: functional
[3] = target: Integrin alpha-IIb/beta-3 (Homo sapiens, UniProt P05106+P08514); assay: Antagonist activity at alpha2bbeta3 integrin receptor; assay type: functional
Integrin alpha-V/beta-3 [4] = target: T1, Integrin alpha-V/beta-3; assay: Antagonist activity at alphavbeta3 integrin receptor human VSMC assessed as inhibition of vitronectin-induced cell adhesion; assay type: functional, cell-based
[5] = Antiplatelet activity in human platelet rich plasma assessed as inhibition of platelet aggregation; assay type: functional
[6] = Aqueous solubility of the compound in water
[7] = target: T2, Peroxisome proliferator-activated receptor alpha (Homo sapiens) (UniProt Q07869); assay: Agonist activity at PPARalpha at 1 uM; assay type: functional
T2 sequence (whole entry): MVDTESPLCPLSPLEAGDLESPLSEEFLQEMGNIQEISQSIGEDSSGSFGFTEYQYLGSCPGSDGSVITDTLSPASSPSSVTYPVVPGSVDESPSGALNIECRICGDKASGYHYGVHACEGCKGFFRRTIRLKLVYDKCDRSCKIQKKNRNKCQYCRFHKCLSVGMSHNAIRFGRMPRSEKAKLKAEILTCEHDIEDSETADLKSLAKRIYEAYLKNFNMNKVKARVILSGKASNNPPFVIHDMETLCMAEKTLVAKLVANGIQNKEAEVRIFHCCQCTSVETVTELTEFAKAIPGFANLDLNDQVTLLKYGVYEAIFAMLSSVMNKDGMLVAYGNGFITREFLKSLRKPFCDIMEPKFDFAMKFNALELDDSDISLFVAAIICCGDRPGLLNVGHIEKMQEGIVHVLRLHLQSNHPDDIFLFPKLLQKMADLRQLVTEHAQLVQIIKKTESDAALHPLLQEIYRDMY

[8] = Inhibition of Escherichia coli H560 DNA gyrase mediated DNA cleavage
[9] = Aqueous solubility of the compound; assay type: physicochemical; conditions: buffer
[10] = target: Macrophage metalloelastase (Homo sapiens, UniProt P39900); assay: Inhibition of MMP12
[11] = Aqueous solubility of the compound at pH 7.4; assay type: physicochemical; conditions: buffer

Sequence of Integrin alpha-IIb/beta-3 (P05106 27-788 limits assumed): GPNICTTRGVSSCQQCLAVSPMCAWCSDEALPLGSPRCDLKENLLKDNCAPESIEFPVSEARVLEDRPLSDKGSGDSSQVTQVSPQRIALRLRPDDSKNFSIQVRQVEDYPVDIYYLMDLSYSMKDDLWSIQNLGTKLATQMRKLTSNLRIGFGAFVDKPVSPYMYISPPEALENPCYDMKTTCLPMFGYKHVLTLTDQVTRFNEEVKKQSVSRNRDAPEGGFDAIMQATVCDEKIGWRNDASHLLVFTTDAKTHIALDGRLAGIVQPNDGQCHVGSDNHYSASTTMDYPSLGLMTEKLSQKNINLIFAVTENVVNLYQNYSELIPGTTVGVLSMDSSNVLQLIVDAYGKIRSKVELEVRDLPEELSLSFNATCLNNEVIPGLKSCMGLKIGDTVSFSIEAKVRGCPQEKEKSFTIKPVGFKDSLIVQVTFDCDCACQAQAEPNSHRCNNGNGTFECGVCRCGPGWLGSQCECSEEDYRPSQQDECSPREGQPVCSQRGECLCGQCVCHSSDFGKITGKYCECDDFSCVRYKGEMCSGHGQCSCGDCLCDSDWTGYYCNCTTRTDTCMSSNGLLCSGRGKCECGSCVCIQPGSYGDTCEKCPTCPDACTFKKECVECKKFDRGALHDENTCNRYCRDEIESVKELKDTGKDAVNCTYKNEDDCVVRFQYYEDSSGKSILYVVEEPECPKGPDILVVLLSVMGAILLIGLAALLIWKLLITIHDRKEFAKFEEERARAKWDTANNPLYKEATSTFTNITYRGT
Sequence of Integrin alpha-IIb/beta-3 (P08514 32-887 limits assumed): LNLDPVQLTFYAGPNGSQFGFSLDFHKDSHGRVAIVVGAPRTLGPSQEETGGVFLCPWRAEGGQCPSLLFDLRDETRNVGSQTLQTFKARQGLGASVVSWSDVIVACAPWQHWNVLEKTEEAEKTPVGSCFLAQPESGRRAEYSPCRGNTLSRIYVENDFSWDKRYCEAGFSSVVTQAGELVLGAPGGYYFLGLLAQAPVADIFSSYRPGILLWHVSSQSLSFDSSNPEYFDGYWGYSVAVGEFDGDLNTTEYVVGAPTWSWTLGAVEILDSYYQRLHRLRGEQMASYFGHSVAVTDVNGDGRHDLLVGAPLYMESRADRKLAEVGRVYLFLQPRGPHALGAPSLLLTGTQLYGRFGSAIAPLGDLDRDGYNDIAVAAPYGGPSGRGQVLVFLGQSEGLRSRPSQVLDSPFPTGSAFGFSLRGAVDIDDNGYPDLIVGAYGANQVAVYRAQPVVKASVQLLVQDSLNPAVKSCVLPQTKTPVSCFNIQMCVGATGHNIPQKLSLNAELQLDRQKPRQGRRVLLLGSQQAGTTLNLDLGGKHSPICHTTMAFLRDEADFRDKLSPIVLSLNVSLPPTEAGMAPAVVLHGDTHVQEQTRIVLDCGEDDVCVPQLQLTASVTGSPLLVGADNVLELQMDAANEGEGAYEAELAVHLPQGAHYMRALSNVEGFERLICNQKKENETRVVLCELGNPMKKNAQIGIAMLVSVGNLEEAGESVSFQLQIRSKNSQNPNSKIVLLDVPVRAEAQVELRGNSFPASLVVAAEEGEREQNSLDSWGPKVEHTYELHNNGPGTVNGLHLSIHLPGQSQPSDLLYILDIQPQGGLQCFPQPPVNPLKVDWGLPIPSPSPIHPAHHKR
Sequence of Integrin alpha-IIb/beta-3 (P08514 891-1039 limits assumed): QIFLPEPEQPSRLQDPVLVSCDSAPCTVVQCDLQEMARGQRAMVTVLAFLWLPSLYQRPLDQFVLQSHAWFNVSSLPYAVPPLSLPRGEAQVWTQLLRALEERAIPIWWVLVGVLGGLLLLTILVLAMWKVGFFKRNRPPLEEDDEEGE
T1 sequence (P05106 27-788 limits assumed): as the sequence (P05106 27-788 limits assumed) above
T1 sequence (P06756 31-889 limits assumed): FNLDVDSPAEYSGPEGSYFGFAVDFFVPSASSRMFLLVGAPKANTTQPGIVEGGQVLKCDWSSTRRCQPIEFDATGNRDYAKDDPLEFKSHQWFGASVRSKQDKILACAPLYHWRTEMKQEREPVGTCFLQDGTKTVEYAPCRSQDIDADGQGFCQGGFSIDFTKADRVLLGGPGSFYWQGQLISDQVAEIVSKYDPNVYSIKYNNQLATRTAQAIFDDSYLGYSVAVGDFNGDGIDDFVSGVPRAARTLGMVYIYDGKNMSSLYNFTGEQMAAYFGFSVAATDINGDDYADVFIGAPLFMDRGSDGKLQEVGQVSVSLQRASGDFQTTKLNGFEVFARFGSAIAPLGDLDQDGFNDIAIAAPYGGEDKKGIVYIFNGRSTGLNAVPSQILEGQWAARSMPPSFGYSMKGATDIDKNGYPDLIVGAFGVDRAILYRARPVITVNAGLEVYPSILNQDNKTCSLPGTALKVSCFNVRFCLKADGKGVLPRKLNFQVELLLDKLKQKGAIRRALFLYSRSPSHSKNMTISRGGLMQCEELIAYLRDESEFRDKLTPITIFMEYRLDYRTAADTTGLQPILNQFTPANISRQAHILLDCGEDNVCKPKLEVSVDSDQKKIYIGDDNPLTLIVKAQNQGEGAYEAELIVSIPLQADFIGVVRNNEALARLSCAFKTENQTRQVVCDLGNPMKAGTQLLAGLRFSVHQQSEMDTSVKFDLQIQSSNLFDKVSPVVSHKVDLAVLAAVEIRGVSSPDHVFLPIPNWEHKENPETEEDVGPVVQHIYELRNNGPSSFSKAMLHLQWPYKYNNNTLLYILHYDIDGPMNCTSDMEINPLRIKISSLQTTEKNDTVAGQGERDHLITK
T1 sequence (P06756 891-1048 limits assumed): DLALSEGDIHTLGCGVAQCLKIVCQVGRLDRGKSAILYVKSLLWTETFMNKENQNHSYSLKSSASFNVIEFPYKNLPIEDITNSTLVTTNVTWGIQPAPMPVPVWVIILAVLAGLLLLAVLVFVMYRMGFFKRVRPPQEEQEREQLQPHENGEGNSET
Sequence of Macrophage metalloelastase (P39900 whole entry): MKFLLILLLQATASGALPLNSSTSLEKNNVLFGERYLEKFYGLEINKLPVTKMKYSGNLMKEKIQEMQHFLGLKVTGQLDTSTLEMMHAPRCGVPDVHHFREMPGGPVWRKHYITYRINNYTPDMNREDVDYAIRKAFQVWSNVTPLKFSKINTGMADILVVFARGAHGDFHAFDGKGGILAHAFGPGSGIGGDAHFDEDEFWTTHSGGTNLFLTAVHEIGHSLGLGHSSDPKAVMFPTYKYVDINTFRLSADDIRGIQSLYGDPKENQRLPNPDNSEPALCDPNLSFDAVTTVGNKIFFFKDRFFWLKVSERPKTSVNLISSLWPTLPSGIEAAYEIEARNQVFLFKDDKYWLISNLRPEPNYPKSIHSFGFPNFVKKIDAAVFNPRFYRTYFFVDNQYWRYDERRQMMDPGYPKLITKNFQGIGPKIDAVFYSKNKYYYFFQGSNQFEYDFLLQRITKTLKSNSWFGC

IC50 (Integrin alpha-V/beta-3 [2]) [nM]	IC50 [3] [nM]	IC50 (Integrin alpha-V/beta-3 [4]) [nM]	IC50 [5] [nM]	SMILES	further results
				CS(=O)(=O)O.O=c1c2ccc(Cl)cc2[nH]c2c(O)nn(Cc3ccncc3)c(=O)c12	bioavailability [1]: 5%
0.17	0.023	72	90	O=C(NC[C@H](NS(=O)(=O)c1ccccc1)C(=O)O)c1ccc(N2CCC(NC3=NCCCN3)CC2)c(Cl)c1	
0.14	0.18	53	230	O=C(NC[C@H](NS(=O)(=O)c1ccc(O)cc1)C(=O)O)c1ccc(N2CCC(NC3=NCCCN3)CC2)c(F)c1	solubility ([6]; water): 100 µg/mL (≈ 178 µM)
				CCCCOc1ccc(-c2ccc(C(=O)O)cc2C)cc1CNC(=O)c1ccc(C(F)(F)F)cc1F	Activity [7]: inactive
				Cc1c(N2CC[C@H](N)C2)c(F)cn2c(=O)c(C(=O)O)cc(C3CC3)c12 [ABT-719]	IC50 [8]: 0.03 µg/mL (≈ 0.0869 µM)
0.44	0.98	530	170	O=C(NC[C@H](NS(=O)(=O)c1ccccc1)C(=O)O)c1ccc(N2CCC(NC3=NCCCN3)CC2)c(O)c1	
0.48	0.56	31	83	O=C(NC[C@H](NS(=O)(=O)c1ccccc1)C(=O)O)c1ccc(N2CCC[C@H](N=C3NCCCN3)C2)cc1	solubility ([6]; buffer): 3500 µg/mL (≈ 6620 µM)
				O=c1cc(-c2ccccc2)oc2ccc3ccccc3c12 [BETA-NAPHTHOFLAVONE]	solubility [9]: < 0.15 µg/mL
0.77	1.2	660	930	O=C(O)c1ccc(S(=O)(=O)N[C@@H](CNC(=O)c2ccc(N3CCC(NC4=NCCCN4)CC3)c(F)c2)C(=O)O)cc1	
				CCCCOc1ccc(-c2ccc(C(=O)O)cc2F)cc1CNC(=O)c1ccc(C(F)(F)F)cc1F	Activity [7]: inactive
1.3	3	190	290	O=C(NC[C@H](NS(=O)(=O)c1ccccc1)C(=O)O)c1ccc(N2CCC(NC3=NCCCN3)CC2)cc1	solubility ([6]; water): < 100 µg/mL
	0.44	110	130	COc1cc(C(=O)NC[C@H](NS(=O)(=O)c2ccccc2)C(=O)O)ccc1N1CCC(NC2=NCCCN2)CC1	
				CCCCOc1ccc(-c2ccc(C(=O)O)cc2)cc1CNC(=O)c1ccc(C(F)(F)F)cc1F	Activity [7]: inactive
				O=C(O)Cc1ccc(CNC(=O)c2cc(-c3ccc(-c4ccccc4O)cc3)cs2)cc1	solubility [9]: 134 µg/mL (≈ 302 µM); IC50 [10]: 90 nM
				O=C(O)Cc1ccc(CNC(=O)c2cc(-c3ccc(-c4ccccc4)cc3)cs2)cc1	solubility [9]: < 1 µg/mL; IC50 [10]: 70 nM
				CC(c1ccncc1)n1[nH]c(=O)c2[nH]c3cc(Cl)ccc3c(=O)c2c1=O.CS(=O)(=O)O (stereo not drawn)	solubility [11]: > 290 µg/mL
0.3	0.94	390	510	O=C(NC[C@H](NS(=O)(=O)c1ccc(O)cc1)C(=O)O)c1ccc(N2CCC(NC3=NCCCN3)CC2)c(O)c1	
				O=C(O)c1cc(C2CC2)c2cc(N3CCNCC3)c(F)cn2c1=O	IC50 [8]: 0.15 µg/mL (≈ 0.453 µM)
				Clc1ccc(-c2ccccc2Cl)cc1	solubility ([6]; water): 637 µg/mL (≈ 2860 µM)
				CCCCOc1ccc(-c2c(F)ccc(C(=O)O)c2F)cc1CNC(=O)c1ccc(C(F)(F)F)cc1F	Activity [7]: inactive
0.23	0.78	16	290	O=C(NC[C@H](NS(=O)(=O)c1ccccc1)C(=O)O)c1ccc(N2CCC[C@H](NC3=NCCCN3)C2)cc1F	solubility ([6]; water): 2800 µg/mL (≈ 5120 µM)
0.25	0.4	52	99	O=C(NC[C@H](NS(=O)(=O)c1cccs1)C(=O)O)c1ccc(N2CCC[C@H](NC3=NCCCN3)C2)cc1	solubility ([6]; water): 3300 µg/mL (≈ 6170 µM)
0.36	0.21	48	37	O=C(NC[C@H](NS(=O)(=O)c1ccccc1)C(=O)O)c1ccc(N2CCC(NC3=NCCCN3)CC2)c(F)c1	solubility ([6]; buffer): 600 µg/mL (≈ 1100 µM)
